{"source": "patent US9895466B2", "about": "“Liposomal drug delivery system for bone cements” (UNIVERSITY COLLEGE CARDIFF CONSULTANTS LIMITED, priority 2013, dated 2018)", "tested_on": "Staphylococcus aureus (S. aureus)", "test": "Microbial growth and zones of inhibition on agar plates", "assay_type": "cell-based", "conditions": "24 hours at 37° C.", "experimental": "10 mm diameter by 2 mm thick cylindrical bone cement samples were prepared as previously described for Palacos R, Palacos R+G and Palacos R with 200 mg of L61 liposomal gentamicin sulphate. Tryptone soya agar (TSA) was prepared by dissolving 40 g of tryptone soy agar medium in one liter of distilled water. The solution was boiled for one minute then sterilized in an autoclave at 121° C. for 15 minutes. The solution was allowed to cool to 45-50° C. before being dispensed into petri dishes (9 cm diameter). The petri dishes were cooled to room temperature then stored at 8-15° C. until use. Staphylococcus aureus (S. aureus) was cultured in tryptic soy broth (TSB) for 18-24 hours at 37° C. A sterile cotton swab was used to spread the inoculum across the TSA petri dish. The petri dish was turned by 60° and the process was repeated to ensure complete surface coverage. A 10 ug gentamicin standard disc was placed on the petri dish as a control and pressure was applied to the top of the disc to ensure full surface contact. […] The petri dish was then incubated at 37° C. for 18-24 hours, after which, the zones of inhibition around the samples and gentamicin disc were measured. Images of the zones of inhibition were taken and measured using ImageJ software (National Institutes of Health, Maryland, USA). The zones of inhibition were measured as the radius of the zone minus the radius of the sample. […]", "data": [{"substance": "gentamicin sulphate", "values": [{"measurement": "Zone of inhibition against S. aureus", "value": "created a zone of inhibition"}]}]}
